# Measurements from article PMC4129108, “The natural triterpene 3β,6β,16β-trihydroxy-lup-20(29)-ene obtained from the flowers of Combretum leprosum induces apoptosis in MCF-7 breast cancer cells” (BMC Complementary and Alternative Medicine, 2014).
# “Also recorded” adds a separate entry of the source.
# How the values were obtained:
# [1] = tested on: MRC5 (lung normal fibroblast); experiment: XTT cell viability assay, MRC5 normal fibroblasts; format: cell-based; conditions: Homo sapiens
# Protocol: (§1) The human cell lines MCF-7 (breast adenocarcinoma), HepG2 (hepatoma), T24 (bladder cancer), CACO-2 (colorectal adenocarcinoma) and MRC5 (lung normal fibroblast) were obtained from the Rio de Janeiro Cell Bank (Rio de Janeiro, RJ, Brazil). The HCT116 cell (colorectal carcinoma), and HT29 cell (colorectal adenocarcinoma) were kindly provided by Dr. Annette K. Larsen (Institut National de la Santé et de la Recherche Médicale - INSERM, Paris, França). All cell lines except MCF-7 were grown in DMEM supplemented with 10% or 20% (for CACO-2) FBS, 100 units.mL^-1 penicillin and 100 μg.mL^-1 streptomycin at 37°C in a humidified atmosphere of 5% CO2. MCF-7 cells were maintained in RPMI-1640 supplemented with 20% FBS at the same conditions described above.
# (§2) The cytotoxic potential of the TTHL was evaluated by the XTT assay in human tumor cell lines as well as in MRC5 normal fibroblasts. Cells (1 × 10^4 cells) were seeded on 96-well plates in growth medium and incubated overnight. Afterwards, TTHL (0.5, 1.0, 2.5, 5.0, and 10 μg/mL) was added to each well and incubated for 24, 48, 72, and 120 h. Mitoxantrone, a cytostatic anthracenedione that intercalates in DNA and increases the incidence of double-strand breaks by stabilizing the cleavable complex of topoisomerase II and DNA, was used as positive control. At the end of each treatment, cell viability was assessed according to the manufacturer’s instructions. Briefly, after discarding the medium, 1 mL of XTT labeling mixture was added to the cells and incubated for 2 h at 37°C. Absorbance was measured with a SpectraMax reader (Bio-Rad, USA) at a test wavelength of 492 nm (A492) and a reference wavelength of 690 nm (A690). The final result corresponds to A492-A690. The absorbance of negative control cells was set as 100% viability, and the values for treated cells were calculated as a percentage of the control.
# (§3) The IC20, IC50, and IC80 values and their 95% confidence intervals (CI 95%) were obtained by nonlinear regression using GraphPad Prism v5 program (Intuitive Software for Science, San Diego, CA, USA). Selective index (SI) was calculated by IC50 in MRC5 cells/IC50 in tumoral cells. All experiments were independently repeated at least three times, with triplicate samples for each treatment. Results are expressed as means ± standard deviation (SD). Data were analyzed by one-way analysis of variance (ANOVA), and means were compared using Tukey test, with P ≤ 0.05 considered as statistically significant.
# [2] = tested on: HepG2 (hepatoma); experiment: XTT cell viability assay, HepG2; format: cell-based, human; conditions: for IC50: Homo sapiens, XTT
# Protocol: as §1, §2, §3
# [3] = tested on: HT29 cell (colorectal adenocarcinoma); experiment: XTT cell viability assay, HT29; format: cell-based, human; conditions: for IC50: Homo sapiens, HT-29, XTT
# Protocol: as §1, §2, §3
# [4] = tested on: MCF-7 cells; experiment: Cell cycle distribution by flow cytometric analysis (PI); format: cell-based, human; conditions: MCF-7, 24 h
# Protocol: Cells (2 × 10^5 cells/mL) were seeded on 6-well tissue culture plates, and grown for 1 day up to 70–80% confluence before treatment with the test substance. The TTHL was added to medium with FBS to obtain the different concentrations, and cells were treated at 37°C for 24 h in humidified atmosphere containing 5% CO2.
# Cell cycle distribution determination analysis was performed as previously described. After treatment, cells were trypsinized, centrifuged and resuspended in ice-cold 70% ethanol, and left for 24 h at 4°C. Ethanol-fixed cells were centrifuged, washed with PBS and resuspended in buffer containing 0.2 mg/mL RNAse, 50 μg/mL PI and 0.1% Triton X-100, and incubated for 30 min at room temperature. Samples were analyzed on a FACS Calibur flow cytometer (Becton-Dikinson, San Fransisco, CA) using the CellQuest software. A total of 10,000 events were measured per sample. The data were analyzed to determine the percentage of cells at each phase of the cell cycle (sub-G1, G1, S and G2/M).
# [5] = tested on: S. cerevisiae haploid strain XV185-14c; experiment: Point and frameshift mutations and survival in XV185-14c haploid yeast; format: cell-based, Saccharomyces cerevisiae; conditions: for HIS1/10^7 survivors (locus-specific revertants) / HOM3/10^8 survivors (locus-specific revertants, frameshift) / LYS1/10^8 survivors (locus non-specific revertants) / Survival (%): XV185-14c, STAT cells treated in PBS; for Survival (%): 1 h 30°C
# Protocol: Media, solutions and buffers were prepared according to Burke et al.. YPD medium (0.5% yeast extract, 2% peptone, 2% glucose) was used for routine growth. Synthetic medium SC (0.67% yeast nitrogen base, 0.1% ammonium sulfate, 2% glucose) supplemented with the appropriate amino acids and bases ([…]) was used for the detection of mutations.
# Stationary phase (STAT) cultures were obtained by inoculation of a single colony into liquid YPD. We chose to work in the stationary phase of growth because this resembles most cells of multicellular organisms in important aspects: (i) most energy comes from mitochondrial respiration; (ii) the cells have left the active cell cycle and have entered the Go phase; and (iii) damage accumulates over time.
# Cell cultures were grown as described above, exposed to TTHL in concentrations ranging from 10 to 500 μg/mL, and then incubated in PBS for 1 h at 30°C. Two alleles, his1-798 and lys1-1, were used to detect point mutagenesis. The suppressible ochre nonsense mutant allele lys1-1 can be reverted either by locus-specific sequence alteration (true reversion) or by a forward mutation in a suppressor gene. […] Survival was determined on SC medium (3–5 days, 30°C) and mutation induction (HIS, LYS or HOM revertants) on media lacking the appropriate amino acid (7–10 days, 30°C). Induction of reversion of point mutation to his1-798, ochre allele lys1-1, and frameshift mutation values were scored per number of surviving cells.
compound,measurement,setting,value
"C=C(C)[C@@H]1CC[C@@]2(C)[C@H]1[C@H]1CC[C@@H]3[C@@]4(C)CC[C@H](O)C(C)(C)[C@@H]4[C@H](O)C[C@@]3(C)[C@]1(C)C[C@@H]2O [TTHL, 3β,6β,16β-trihydroxy-lup-20(29)-ene]",IC50,"[1]; MRC5, 24 h treatment",8.4 ± 0.28 µg/mL
same,IC50,"[1]; MRC5, 48 h treatment",7.6 ± 0.14 µg/mL
same,IC50,"[1]; MRC5, 72 h treatment",7.4 ± 0.15 µg/mL
same,IC50,"[1]; MRC5, 120 h treatment",6.84 ± 0.1 µg/mL
same,IC50,"[2]; HepG2, 24 h treatment",6.5 ± 0.43 µg/mL
same,IC50,"[2]; HepG2, 48 h treatment",6.1 ± 0.28 µg/mL
same,IC50,"[2]; HepG2, 72 h treatment",5.45 ± 0.35 µg/mL
same,IC50,"[2]; HepG2, 120 h treatment",0.88 ± 0.13 µg/mL
same,Selectivity index (SI),"[2]; IC50 in MRC5 cells/IC50 in HepG2, 24 h",1.3 X
same,Selectivity index (SI),"[2]; IC50 in MRC5 cells/IC50 in HepG2, 48 h",1 X
same,Selectivity index (SI),"[2]; IC50 in MRC5 cells/IC50 in HepG2, 72 h",1 X
same,Selectivity index (SI),"[2]; IC50 in MRC5 cells/IC50 in HepG2, 120 h",8 X
same,IC50,"[3]; HT29, 24 h treatment",8 ± 0.14 µg/mL
same,IC50,"[3]; HT29, 48 h treatment",7 ± 0.42 µg/mL
same,IC50,"[3]; HT29, 72 h treatment",6.15 ± 0.21 µg/mL
same,IC50,"[3]; HT29, 120 h treatment",5.3 ± 0.28 µg/mL
same,Selectivity index (SI),"[3]; IC50 in MRC5 cells/IC50 in HT29, 24 h",1 X
same,Selectivity index (SI),"[3]; IC50 in MRC5 cells/IC50 in HT29, 48 h",1 X
same,Selectivity index (SI),"[3]; IC50 in MRC5 cells/IC50 in HT29, 72 h",1 X
same,Selectivity index (SI),"[3]; IC50 in MRC5 cells/IC50 in HT29, 120 h",1 X
same,change in cell cycle progression,"[4]; TTHL at IC20, IC50, IC80",no significant change in cell cycle progression
same,sub-G1 population,"[4]; seen at IC50 and IC80, concentration-dependent",significant increase in the sub-G1 population
same,mutagenicity in yeast strain XV185-14c (in words),"[5]; 10 to 500 μg/mL, his1-798, lys1-1, hom3-10 loci",induced mutagenicity; also recorded: only able to induce mutagenesis on the assessed loci at the highest concentration
same,HIS1/10^7 survivors (locus-specific revertants),[5]; 10 μg/mL,10.77 ± 4.40 /10^7 survivors
same,"HOM3/10^8 survivors (locus-specific revertants, frameshift)",[5]; 10 μg/mL,6.11 ± 1.58 /10^8 survivors
same,LYS1/10^8 survivors (locus non-specific revertants),[5]; 10 μg/mL,4.78 ± 0.63 /10^8 survivors
same,Survival (%),[5]; 10 μg/mL,84.90%
same,HIS1/10^7 survivors (locus-specific revertants),[5]; 50 μg/mL,13.33 ± 1.10 /10^7 survivors
same,"HOM3/10^8 survivors (locus-specific revertants, frameshift)",[5]; 50 μg/mL,8.80 ± 0.14 /10^8 survivors
same,LYS1/10^8 survivors (locus non-specific revertants),[5]; 50 μg/mL,5.68 ± 2.22 /10^8 survivors
same,Survival (%),[5]; 50 μg/mL,72.83%
same,HIS1/10^7 survivors (locus-specific revertants),[5]; 100 μg/mL,20.83 ± 1.80 /10^7 survivors
same,"HOM3/10^8 survivors (locus-specific revertants, frameshift)",[5]; 100 μg/mL,8.49 ± 2.12 /10^8 survivors
same,LYS1/10^8 survivors (locus non-specific revertants),[5]; 100 μg/mL,9.72 ± 0.55 /10^8 survivors
same,Survival (%),[5]; 100 μg/mL,65.00%
same,HIS1/10^7 survivors (locus-specific revertants),[5]; 500 μg/mL,30.10 ± 0.21 /10^7 survivors
same,"HOM3/10^8 survivors (locus-specific revertants, frameshift)",[5]; 500 μg/mL,11.15 ± 0.92 /10^8 survivors
same,LYS1/10^8 survivors (locus non-specific revertants),[5]; 500 μg/mL,14.40 ± 3.40 /10^8 survivors
same,Survival (%),[5]; 500 μg/mL,69.00%
